Source: patent publication US9242993B2, “Morpholino substituted bicyclic pyrimidine urea or carbamate derivatives as mTOR inhibitors” (CELLZOME LIMITED, priority 2011, dated 2016)

Tests used:
[1] = tested on: S6RP serine-240/244 phosphorylation; test: In vitro phospho-S6 cellular assay; type: cell-based; settings: Homo sapiens; HEK293T/17 cells, 2 hours; read-out: pS6 inhibition value (IC50), activity level
How it was run: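 HEK293T/17 cells (40,000/well for pS6RP, 80,000/well for pAkt) in DMEM, 2% FCS treated 2 h at 37 °C with 8 compound concentrations (0.1% DMSO). Lysates assayed by MesoScale sandwich electrochemiluminescence for pS6RP Ser240/244 or pAkt Ser473. Curves fitted by sigmoidal variable-slope regression.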

[2] = tested on: IFNγ release in whole blood; test: In vitro human whole blood assay (IFNγ release); type: cell-based; settings: αCD3/αCD28 and IL-2 stimulation, 18 hours, read-out: WB inhibition value (pIC50) (converted)
Description: This assay measures IFNγ release in whole blood after αCD3/αCD28 and IL-2 treatment. The whole blood contains circulating T lymphocytes; αCD3/αCD28 stimulation mimics antigen receptor signalling, resulting in epigenetic changes to the IFNG gene locus, such that when IL-2 is added, IFNγ is produced.
Human whole blood, with Na-heparin as the anticoagulant, is obtained from Clinical Trials Laboratory Services. Blood is diluted 1.4 times with RPMI 1640 (Lonza, BE12-167F) and 175 μl/well is distributed in a low evaporation 96-well plates (Falcon, BD Labware, 353072). Blood is treated with 10 concentrations of test compounds or DMSO alone for controls (final DMSO concentration 0.2%) and incubated at 37° C. for 1 hour. Blood is then stimulated with 1 μg/ml αCD3 (R&D Systems, MAB100), 1 μg/ml αCD28 (BD Pharmingen, 555725) and IL-2 at 10 ng/ml (Peprotech, 200-02). Blood is then left to incubate at 37° C. for 18 hours. After, plates are spun at 250 g for 5 minutes to pellet blood cells and 25 μl of plasma is transferred to a MesoScale plate coated with an antibody to IFNγ (MesoScale Discovery K151AEC-2) containing 25 μl/well MesoScale Discovery Blocking Solution-2. Plates have been blocked by incubating with 25 μl/well MesoScale Discovery Blocking Solution-2 for 30 minutes at room temperature. After the transfer of sera to the MSD plate, the IFNγ protein is captured on the coated antibody by incubation at room temperature for 2 hour with gentle shaking. After the capture step the plate is washed three times with 150 μl/well of 1×PBS-Tween wash buffer and 25 μl/well detection antibody conjugated with a Sulfo-Tag is added and incubated for 2 hours at room temperature with gentle shaking. Subsequently the antibody solution is removed and the plate is washed 3 times with 150 μl/well 1×PBS-Tween wash buffer and 150 μl/well MesoScale Discovery Read buffer is added. The plates are analysed on a MSD 2400 Plate Reader (MesoScale Discovery). Data analysis is performed using nonlinear regression for a sigmoidal dose-response with a variable slope.

[3] = target: mTOR (Homo sapiens, UniProt P42345); test: biochemical
[4] = target: DNA-dependent protein kinase (DNA-PK) (Homo sapiens, UniProt P78527); test: biochemical
DNA-dependent protein kinase (DNA-PK), sequence (P78527 whole entry): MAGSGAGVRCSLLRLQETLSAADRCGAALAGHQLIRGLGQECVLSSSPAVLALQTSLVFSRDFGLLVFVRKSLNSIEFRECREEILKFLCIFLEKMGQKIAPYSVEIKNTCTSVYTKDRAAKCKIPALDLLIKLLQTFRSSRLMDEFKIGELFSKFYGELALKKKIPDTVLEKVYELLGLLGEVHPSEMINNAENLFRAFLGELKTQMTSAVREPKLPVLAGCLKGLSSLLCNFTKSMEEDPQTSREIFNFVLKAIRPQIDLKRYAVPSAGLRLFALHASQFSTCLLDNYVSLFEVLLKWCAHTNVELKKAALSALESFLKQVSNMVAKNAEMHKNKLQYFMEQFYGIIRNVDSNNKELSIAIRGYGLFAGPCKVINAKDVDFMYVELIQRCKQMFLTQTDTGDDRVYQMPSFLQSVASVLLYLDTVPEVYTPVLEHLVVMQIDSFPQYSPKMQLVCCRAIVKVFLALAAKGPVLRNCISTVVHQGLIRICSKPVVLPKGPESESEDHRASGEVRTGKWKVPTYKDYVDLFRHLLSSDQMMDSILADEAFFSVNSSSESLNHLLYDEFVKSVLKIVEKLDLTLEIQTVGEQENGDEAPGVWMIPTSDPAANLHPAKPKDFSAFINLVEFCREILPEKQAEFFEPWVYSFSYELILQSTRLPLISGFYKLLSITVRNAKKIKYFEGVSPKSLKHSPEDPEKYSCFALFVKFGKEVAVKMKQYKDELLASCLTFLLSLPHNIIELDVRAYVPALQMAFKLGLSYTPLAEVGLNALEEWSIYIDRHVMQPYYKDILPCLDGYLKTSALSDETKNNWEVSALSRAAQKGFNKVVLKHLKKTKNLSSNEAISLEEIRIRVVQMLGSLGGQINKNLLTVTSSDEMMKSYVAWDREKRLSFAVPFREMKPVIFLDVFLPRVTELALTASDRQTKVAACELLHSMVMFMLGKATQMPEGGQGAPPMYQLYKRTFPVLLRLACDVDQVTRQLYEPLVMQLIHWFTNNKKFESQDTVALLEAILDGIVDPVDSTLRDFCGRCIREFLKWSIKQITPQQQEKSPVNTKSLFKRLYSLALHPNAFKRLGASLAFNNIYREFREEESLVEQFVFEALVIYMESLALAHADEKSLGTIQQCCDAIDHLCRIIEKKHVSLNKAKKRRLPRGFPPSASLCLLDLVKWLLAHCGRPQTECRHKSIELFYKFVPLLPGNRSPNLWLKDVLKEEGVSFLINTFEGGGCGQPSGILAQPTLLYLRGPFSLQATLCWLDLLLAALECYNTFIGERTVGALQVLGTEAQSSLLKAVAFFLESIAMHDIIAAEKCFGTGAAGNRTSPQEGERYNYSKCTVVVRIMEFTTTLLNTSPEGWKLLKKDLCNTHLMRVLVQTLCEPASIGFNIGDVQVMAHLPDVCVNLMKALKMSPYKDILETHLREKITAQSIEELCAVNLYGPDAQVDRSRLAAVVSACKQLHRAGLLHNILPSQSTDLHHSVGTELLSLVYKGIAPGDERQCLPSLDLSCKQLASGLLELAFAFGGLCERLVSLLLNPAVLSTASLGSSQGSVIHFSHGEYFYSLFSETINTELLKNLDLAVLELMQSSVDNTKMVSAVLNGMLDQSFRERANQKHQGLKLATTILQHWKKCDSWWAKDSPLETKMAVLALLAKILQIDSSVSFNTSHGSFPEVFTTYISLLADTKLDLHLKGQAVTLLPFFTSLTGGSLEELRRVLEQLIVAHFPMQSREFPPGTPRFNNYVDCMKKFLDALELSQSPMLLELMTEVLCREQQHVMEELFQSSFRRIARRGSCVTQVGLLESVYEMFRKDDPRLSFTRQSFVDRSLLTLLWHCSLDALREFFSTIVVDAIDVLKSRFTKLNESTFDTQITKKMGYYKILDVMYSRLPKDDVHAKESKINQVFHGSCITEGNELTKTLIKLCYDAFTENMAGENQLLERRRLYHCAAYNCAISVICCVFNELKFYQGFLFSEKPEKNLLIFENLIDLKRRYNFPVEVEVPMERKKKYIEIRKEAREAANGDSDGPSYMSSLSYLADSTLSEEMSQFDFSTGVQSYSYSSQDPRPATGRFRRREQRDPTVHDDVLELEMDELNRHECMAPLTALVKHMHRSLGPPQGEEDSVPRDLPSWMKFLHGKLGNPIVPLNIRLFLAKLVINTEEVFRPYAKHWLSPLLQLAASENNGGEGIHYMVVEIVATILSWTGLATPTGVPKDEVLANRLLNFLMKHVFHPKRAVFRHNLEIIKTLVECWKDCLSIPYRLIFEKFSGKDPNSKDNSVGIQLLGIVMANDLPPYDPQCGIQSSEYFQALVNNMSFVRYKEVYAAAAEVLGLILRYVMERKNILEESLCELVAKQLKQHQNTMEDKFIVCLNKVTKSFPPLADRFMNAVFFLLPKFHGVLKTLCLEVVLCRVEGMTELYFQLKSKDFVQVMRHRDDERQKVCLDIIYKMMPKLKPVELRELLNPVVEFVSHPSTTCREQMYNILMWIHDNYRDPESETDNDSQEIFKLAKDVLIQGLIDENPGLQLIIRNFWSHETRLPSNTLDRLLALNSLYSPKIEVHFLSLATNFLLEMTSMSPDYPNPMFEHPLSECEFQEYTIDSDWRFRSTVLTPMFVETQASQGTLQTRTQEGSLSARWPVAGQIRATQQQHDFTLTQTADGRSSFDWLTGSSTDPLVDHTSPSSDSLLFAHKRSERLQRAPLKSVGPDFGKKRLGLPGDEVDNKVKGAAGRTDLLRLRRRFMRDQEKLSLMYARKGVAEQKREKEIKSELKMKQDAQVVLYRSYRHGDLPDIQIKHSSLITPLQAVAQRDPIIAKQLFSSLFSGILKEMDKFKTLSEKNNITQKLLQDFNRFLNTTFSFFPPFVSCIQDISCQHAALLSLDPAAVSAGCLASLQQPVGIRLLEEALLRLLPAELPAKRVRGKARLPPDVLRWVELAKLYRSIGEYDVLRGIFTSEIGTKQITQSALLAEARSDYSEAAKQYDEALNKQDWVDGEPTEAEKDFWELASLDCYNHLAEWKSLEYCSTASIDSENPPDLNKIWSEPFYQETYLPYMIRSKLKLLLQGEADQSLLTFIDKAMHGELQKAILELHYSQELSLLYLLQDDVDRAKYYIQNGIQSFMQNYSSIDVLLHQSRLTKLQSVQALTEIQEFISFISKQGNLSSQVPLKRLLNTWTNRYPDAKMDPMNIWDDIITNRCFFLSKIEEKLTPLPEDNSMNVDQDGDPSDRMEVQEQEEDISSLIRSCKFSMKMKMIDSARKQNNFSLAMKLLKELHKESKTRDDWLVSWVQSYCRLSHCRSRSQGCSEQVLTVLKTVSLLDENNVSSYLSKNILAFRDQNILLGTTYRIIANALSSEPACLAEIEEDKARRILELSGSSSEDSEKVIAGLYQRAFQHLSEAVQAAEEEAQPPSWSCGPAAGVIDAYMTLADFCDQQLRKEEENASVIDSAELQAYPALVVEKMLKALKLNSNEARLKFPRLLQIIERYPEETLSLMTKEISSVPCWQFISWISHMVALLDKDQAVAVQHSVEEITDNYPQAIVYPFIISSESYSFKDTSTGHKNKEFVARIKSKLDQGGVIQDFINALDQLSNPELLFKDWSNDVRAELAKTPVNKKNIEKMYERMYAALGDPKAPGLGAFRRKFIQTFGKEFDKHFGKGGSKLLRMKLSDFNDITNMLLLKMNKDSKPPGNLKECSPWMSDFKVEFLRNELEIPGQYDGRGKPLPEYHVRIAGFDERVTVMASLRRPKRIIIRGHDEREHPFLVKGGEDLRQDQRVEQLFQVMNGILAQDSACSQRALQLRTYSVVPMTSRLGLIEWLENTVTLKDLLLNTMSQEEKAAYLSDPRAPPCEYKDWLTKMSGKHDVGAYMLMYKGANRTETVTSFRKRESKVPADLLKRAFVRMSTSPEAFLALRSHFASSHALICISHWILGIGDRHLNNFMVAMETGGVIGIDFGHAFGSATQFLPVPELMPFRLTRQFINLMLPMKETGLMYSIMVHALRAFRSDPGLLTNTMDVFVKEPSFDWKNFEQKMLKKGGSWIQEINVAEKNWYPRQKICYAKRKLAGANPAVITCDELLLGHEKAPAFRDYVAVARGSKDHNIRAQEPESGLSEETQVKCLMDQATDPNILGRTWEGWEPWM

Row | SMILES | IC50 [1] | IC50 [2] | IC50 [3] | IC50 [4]
1 | CC1Cc2nc(-c3ccc(NC(=O)NC4CC4)cc3)nc(N3CCOC[C@@H]3C)c2CS1(=O)=O (stereo partly drawn) [Example 71, 1-cyclopropyl-3-(4-(7-methyl-4-((S)-3-methylmorpholino)-6,6-dioxido-7,8-dihydro-5H-thiopyrano[4,3-d]pyrimidin-2-yl)phenyl)urea] | < 100 nM | 794 nM | < 100 nM | > 10000 nM
2 | CC1c2c(nc(-c3ccc(NC(=O)NC4CC4)cc3)nc2N2CCOC[C@@H]2C)CCS1(=O)=O (stereo partly drawn) [Example 74, 1-cyclopropyl-3-(4-(5-methyl-4-((S)-3-methylmorpholino)-6,6-dioxido-7,8-dihydro-5H-thiopyrano[4,3-d]pyrimidin-2-yl)phenyl)urea] | < 100 nM | 501 nM | < 100 nM | > 10000 nM
3 | C[C@H]1COCCN1c1nc(-c2ccc(NC(=O)NC3CC3)cc2)nc2c1CS(=O)(=O)C(C)(C)C2 [Example 70, (S)-1-cyclopropyl-3-(4-(7,7-dimethyl-4-(3-methylmorpholino)-6,6-dioxido-7,8-dihydro-5H-thiopyrano[4,3-d]pyrimidin-2-yl)phenyl)urea] | < 100 nM | 158 nM | < 100 nM | > 10000 nM
4 | CC[C@H]1COCCN1c1nc(-c2ccc(NC(=O)NC)c(F)c2)nc2c1CS(=O)(=O)C2(C)C [Example 64, (S)-1-(4-(4-(3-ethylmorpholino)-7,7-dimethyl-6,6-dioxido-5,7-dihydrothieno[3,4-d]pyrimidin-2-yl)-2-fluorophenyl)-3-methylurea] | < 100 nM | 158 nM | 100 to 1000 nM | > 10000 nM
5 | CC[C@H]1COCCN1c1nc(-c2ccc(NC(=O)NC3CC3)cc2)nc2c1CS(=O)(=O)C2(C)C [Example 51, (S)-1-cyclopropyl-3-(4-(4-(3-ethylmorpholino)-7,7-dimethyl-6,6-dioxido-5,7-dihydrothieno[3,4-d]pyrimidin-2-yl)phenyl)urea] | < 100 nM | 158 nM | < 100 nM | > 10000 nM
6 | C[C@H]1COCCN1c1nc(-c2ccc(NC(=O)NC3COC3)cc2)nc2c1CS(=O)(=O)C2(C)C [Example 68, (S)-1-(4-(7,7-dimethyl-4-(3-methylmorpholino)-6,6-dioxido-5,7-dihydrothieno[3,4-d]pyrimidin-2-yl)phenyl)-3-(oxetan-3-yl)urea] | < 100 nM | 316 nM | 100 to 1000 nM | > 10000 nM
7 | CCNC(=O)Nc1ccc(-c2nc3c(c(N4CCOC[C@@H]4CC)n2)[C@@H](C)S(=O)(=O)C3)cc1 [Example 52, 1-ethyl-3-(4-((R)-4-((S)-3-ethylmorpholino)-5-methyl-6,6-dioxido-5,7-dihydrothieno[3,4-d]pyrimidin-2-yl)phenyl)urea] | < 100 nM | 31.6 nM | < 100 nM | > 10000 nM
8 | C[C@H]1COCCN1c1nc(-c2ccc(NC(=O)NCCF)cc2)nc2c1CS(=O)(=O)C2(C)C [Example 61, (S)-1-(4-(7,7-dimethyl-4-(3-methylmorpholino)-6,6-dioxido-5,7-dihydrothieno[3,4-d]pyrimidin-2-yl)phenyl)-3-(2-fluoroethyl)urea] | < 100 nM | 251 nM | < 100 nM | > 10000 nM
9 | CCNC(=O)Nc1ccc(-c2nc(N3CCOC[C@@H]3C)c3c(n2)C(C)(C)S(=O)(=O)C3)c(F)c1 [Example 69, (S)-1-(4-(7,7-dimethyl-4-(3-methylmorpholino)-6,6-dioxido-5,7-dihydrothieno[3,4-d]pyrimidin-2-yl)-3-fluorophenyl)-3-ethylurea] | < 100 nM | 126 nM | < 100 nM | > 10000 nM
10 | CCNC(=O)Nc1ccc(-c2nc(N3C4CCC3COC4)c3c(n2)C(C)(C)S(=O)(=O)C3)cc1 [Example 60, 1-(4-(4-(3-oxa-8-azabicyclo[3.2.1]octan-8-yl)-7,7-dimethyl-6,6-dioxido-5,7-dihydrothieno[3,4-d]pyrimidin-2-yl)phenyl)-3-ethylurea] | < 100 nM | 200 nM | < 100 nM | > 10000 nM
11 | CNC(=O)Nc1ccc(-c2nc3c(c(N4CCOC[C@@H]4C)n2)C(C)S(=O)(=O)C3)cc1 (stereo partly drawn) [Example 58, 1-methyl-3-(4-(5-methyl-4-((S)-3-methylmorpholino)-6,6-dioxido-5,7-dihydrothieno[3,4-d]pyrimidin-2-yl)phenyl)urea] | < 100 nM | 251 nM | < 100 nM | > 10000 nM
12 | CCNC(=O)Nc1ccc(-c2nc3c(c(N4CCOC[C@@H]4C)n2)CS(=O)(=O)C(C)(C)C3)cc1 [Example 73, (S)-1-(4-(7,7-dimethyl-4-(3-methylmorpholino)-6,6-dioxido-7,8-dihydro-5H-thiopyrano[4,3-d]pyrimidin-2-yl)phenyl)-3-ethylurea] | < 100 nM | 63.1 nM | < 100 nM | > 10000 nM
13 | CC1Cc2nc(-c3ccc(NC(=O)NC4CC4)cc3)nc(N3CCOC[C@@H]3C)c2C(C)S1(=O)=O (stereo partly drawn) [Example 72, 1-cyclopropyl-3-(4-(5,7-dimethyl-4-((S)-3-methylmorpholino)-6,6-dioxido-7,8-dihydro-5H-thiopyrano[4,3-d]pyrimidin-2-yl)phenyl)urea] | < 100 nM | 398 nM | < 100 nM | > 10000 nM
14 | CCNC(=O)Nc1ccc(-c2nc3c(c(N4CCOC[C@@H]4CC)n2)[C@H](C)S(=O)(=O)C3)cc1 [Example 53, 1-ethyl-3-(4-((S)-4-((S)-3-ethylmorpholino)-5-methyl-6,6-dioxido-5,7-dihydrothieno[3,4-d]pyrimidin-2-yl)phenyl)urea] | < 100 nM | 63.1 nM | < 100 nM | > 10000 nM
15 | CNC(=O)Nc1ccc(-c2nc(N3CCOC[C@@H]3C)c3c(n2)C(C)(C)S(=O)(=O)C3)c(F)c1 [Example 66, (S)-1-(4-(7,7-dimethyl-4-(3-methylmorpholino)-6,6-dioxido-5,7-dihydrothieno[3,4-d]pyrimidin-2-yl)-3-fluorophenyl)-3-methylurea] | < 100 nM | 1000 nM | < 100 nM | > 10000 nM
16 | CCNC(=O)Nc1ccc(-c2nc3c(c(N4CCOC[C@@H]4CC)n2)CS(=O)(=O)C3C)cc1 (stereo partly drawn) [Example 41, 1-ethyl-3-(4-(4-((S)-3-ethylmorpholino)-7-methyl-6,6-dioxido-5,7-dihydrothieno[3,4-d]pyrimidin-2-yl)phenyl)urea] | < 100 nM | 251 nM | < 100 nM | > 10000 nM
17 | CC[C@H]1COCCN1c1nc(-c2ccc(NC(=O)NC3CC3)cc2)nc2c1C(C)S(=O)(=O)C2 (stereo partly drawn) [Example 47, 1-cyclopropyl-3-(4-(4-((S)-3-ethylmorpholino)-5-methyl-6,6-dioxido-5,7-dihydrothieno[3,4-d]pyrimidin-2-yl)phenyl)urea] | < 100 nM | 79.4 nM | 100 to 1000 nM | > 10000 nM
18 | CC1(C)c2nc(-c3ccc(NC(=O)NC4CC4)cc3)nc(N3C4CCC3COC4)c2CS1(=O)=O [Example 59, 1-(4-(4-(3-oxa-8-azabicyclo[3.2.1]octan-8-yl)-7,7-dimethyl-6,6-dioxido-5,7-dihydrothieno[3,4-d]pyrimidin-2-yl)phenyl)-3-cyclopropylurea] | < 100 nM | 100 nM | < 100 nM | > 10000 nM
